Assay results taken from ChEMBL document CHEMBL3046646, “Regioselective synthesis and cannabinoid receptor binding affinity of N-alkylated 4,5-diaryl-1,2,3-triazoles” (Med Chem Res, 2012).

Each compound was assayed against Cannabinoid receptor 1 (Rattus norvegicus, UniProt P20272) (assay: Displacement of [3H][…] from CB1 receptor in Rattus norvegicus (rat) cerebellum homogenate after 2 hr by scintillation counting). Settings: not given.
Sequence of Cannabinoid receptor 1 (P20272 whole entry): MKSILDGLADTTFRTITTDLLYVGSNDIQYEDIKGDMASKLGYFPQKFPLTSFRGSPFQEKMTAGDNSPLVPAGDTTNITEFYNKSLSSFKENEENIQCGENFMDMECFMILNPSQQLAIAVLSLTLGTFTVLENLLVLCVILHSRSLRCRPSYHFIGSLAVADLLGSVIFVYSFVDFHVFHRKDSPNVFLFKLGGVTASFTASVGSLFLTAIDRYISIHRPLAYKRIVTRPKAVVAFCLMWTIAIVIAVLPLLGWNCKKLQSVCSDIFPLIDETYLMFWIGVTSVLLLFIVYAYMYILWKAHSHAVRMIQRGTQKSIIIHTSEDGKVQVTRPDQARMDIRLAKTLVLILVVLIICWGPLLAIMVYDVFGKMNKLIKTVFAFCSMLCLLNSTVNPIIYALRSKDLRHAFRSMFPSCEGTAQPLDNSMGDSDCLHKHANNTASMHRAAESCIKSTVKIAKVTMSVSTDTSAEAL
Type: tissue-based
With C=CCn1nnc(-c2ccc(Cl)cc2Cl)c1-c1ccc(Cl)cc1 the Ki was “ND(Insoluble)”.
In the case of CCCCCCn1nnc(-c2ccc(Cl)cc2Cl)c1-c1ccc(Cl)cc1, the Ki is reported as “ND(Insoluble)”.
CCC/C=C\Cn1nnc(-c2ccc(Cl)cc2Cl)c1-c1ccc(Cl)cc1 was tested, and the Ki was “ND(Insoluble)”.

Same assay, conditions: read-out: Ki
COC(=O)CCn1nc(-c2ccc(Cl)cc2)c(-c2ccc(Cl)cc2Cl)n1 gave a Ki of 2.36 µM.
Clc1ccc(-c2c(-c3ccc(Cl)cc3Cl)nnn2Cc2ccccc2)cc1 gave a Ki of 0.187 µM.
Work on OCCn1nnc(-c2ccc(Cl)cc2Cl)c1-c1ccc(Cl)cc1 yielded a Ki of 0.163 µM.
COC(=O)Cn1nnc(-c2ccc(Cl)cc2Cl)c1-c1ccc(Cl)cc1 was tested, and the Ki was 0.247 µM.
CCCn1nnc(-c2ccc(Cl)cc2Cl)c1-c1ccc(Cl)cc1 was tested, and the Ki was 0.152 µM.
Work on FCCn1nc(-c2ccc(Cl)cc2)c(-c2ccc(Cl)cc2Cl)n1 yielded a Ki of 0.079 µM.
Compound Clc1ccc(-c2nn(Cc3ccccc3)nc2-c2ccc(Cl)cc2Cl)cc1 has a Ki of 0.23 µM.
N#CCn1nc(-c2ccc(Cl)cc2)c(-c2ccc(Cl)cc2Cl)n1 was tested, and the Ki was 0.232 µM.
OCCn1nc(-c2ccc(Cl)cc2)c(-c2ccc(Cl)cc2Cl)n1 was tested, and the Ki was 0.66 µM.
For ClCCn1nc(-c2ccc(Cl)cc2)c(-c2ccc(Cl)cc2Cl)n1, the Ki was 0.08 µM.
With FCCn1nnc(-c2ccc(Cl)cc2Cl)c1-c1ccc(Cl)cc1 the Ki was 0.421 µM.
Work on COC(=O)Cn1nc(-c2ccc(Cl)cc2)c(-c2ccc(Cl)cc2Cl)n1 yielded a Ki of 0.855 µM.

The compounds below were run against Cannabinoid receptor 1 (Rattus norvegicus) (UniProt P20272) (assay: Displacement of [3H][…] from CB1 receptor in Rattus norvegicus (rat) cerebellum homogenate at 1 uM after 2 hr by scintillation counting). Settings: not given.
Sequence of Cannabinoid receptor 1 (Rattus norvegicus) (P20272 whole entry): as above
Type: tissue-based
N#CCCn1nc(-c2ccc(Cl)cc2)c(-c2ccc(Cl)cc2Cl)n1 showed an inhibition of 26%.
CCOC(=O)CCn1nc(-c2ccc(Cl)cc2)c(-c2ccc(Cl)cc2Cl)n1 showed an inhibition of 22%.

These compounds were tested against Cannabinoid receptor 1 (Rattus norvegicus) (UniProt P20272) (assay: Displacement of [3H][…] from CB1 receptor in Rattus norvegicus (rat) cerebellum homogenate at 100 uM after 2 hr by scintillation counting). Settings: not given.
Type: tissue-based
For CCCCOC(=O)n1nc(-c2ccc(Cl)cc2)c(-c2ccc(Cl)cc2Cl)n1, the inhibition was 30%.
